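Following 48 hours of exposure in 96-well plates, responses at five concentrations were used to interpolate endpoints linearly. Abbreviation: GI50, concentration required for 50% inhibition of growth.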 Active and inactive are the calls of the source. No stated cut-off is given here; in the data, active = GI50 up to about 1.1 µM and inactive = higher.
Tests used:
Assay in all cases: NCI anticancer screen, dose series, 48 h
[1] = tested on: 786-0
[2] = tested on: A498
[3] = tested on: A549
[4] = tested on: ACHN
[5] = tested on: COLO 205
[6] = tested on: DLD-1
[7] = tested on: DMS-114
[8] = tested on: EKVX
[9] = tested on: HCC 2998
[10] = tested on: HCT-116
[11] = tested on: HCT-15
[12] = tested on: HL-60
[13] = tested on: HOP-18
[14] = tested on: HOP-62
[15] = tested on: HOP-92
[16] = tested on: HT-29
[17] = tested on: IGROV-1
[18] = tested on: K562
[19] = tested on: KM-20L2
[20] = tested on: KM12
[21] = tested on: LOX IMVI
[22] = tested on: LXFL 529
[23] = tested on: M19-MEL
[24] = tested on: MOLT-4
[25] = tested on: Malme-3M
[26] = tested on: NCI-H226
[27] = tested on: NCI-H23
[28] = tested on: NCI-H460
[29] = tested on: NCI-H522
[30] = tested on: OVCAR-3
[31] = tested on: OVCAR-4
[32] = tested on: OVCAR-5
[33] = tested on: OVCAR-8
[34] = tested on: RPMI-8226
[35] = tested on: RXF 393
[36] = tested on: SF-268
[37] = tested on: SF-295
[38] = tested on: SF-539
[39] = tested on: SK-MEL-28
[40] = tested on: SK-MEL-2
[41] = tested on: SN12C
[42] = tested on: SNB-19
[43] = tested on: SNB-75
[44] = tested on: SNB-78
[45] = tested on: SW-620
[46] = tested on: TK-10
[47] = tested on: U-251
[48] = tested on: UACC-257
[49] = tested on: UO-31
[50] = tested on: XF498
[51] = tested on: CAKI-1
[52] = tested on: CCRF-CEM
[53] = tested on: M14
[54] = tested on: SK-MEL-5
[55] = tested on: SK-OV-3
[56] = tested on: SR
[57] = tested on: UACC-62

Measured: GI50

CCOC(=O)C1S/C(=N\c2ccc(Cl)cc2)N=C1C (stereo not drawn)
16.1 µM: [11]
inactive: [1] 16.9 µM | [2] 18.3 µM | [3] 17.8 µM | [4] 20.5 µM | [5] 17.5 µM | [6] 14.1 µM | [7] 23.8 µM | [8] 21.4 µM | [9] 17.7 µM | [10] 16.6 µM | [12] 23 µM | [13] 23.3 µM | [14] 20.2 µM | [15] 15.9 µM | [16] 17.1 µM | [17] 19.5 µM | [18] 19.4 µM | [19] 19.2 µM | [20] 18.2 µM | [21] 18.6 µM | [22] > 10 µM | [23] 17.3 µM | [24] 16.7 µM | [25] 19.9 µM | [26] 25.6 µM | [27] 18 µM | [28] 23.6 µM | [29] 17.3 µM | [30] 23.6 µM | [31] 24.7 µM | [32] 22.1 µM | [33] 22.3 µM | [34] 27.9 µM | [35] 16.6 µM | [36] 17 µM | [37] 19.6 µM | [38] 17.9 µM | [39] 20.5 µM | [40] 22.6 µM | [41] 17.5 µM | [42] 19.2 µM | [43] 21.3 µM | [44] 29.2 µM | [45] 19.9 µM | [46] 28.4 µM | [47] 18.8 µM | [48] > 10 µM | [49] 19 µM | [50] 20 µM

O=C(Cc1ccccc1)NN1C(=O)C(Cl)C1c1ccccc1 (stereo not drawn)
inactive: [1] > 100 µM | [3] > 100 µM | [4] > 100 µM | [51] > 100 µM | [52] 18.6 µM | [5] > 100 µM | [6] > 100 µM | [7] 33.9 µM | [8] > 100 µM | [9] > 100 µM | [10] > 100 µM | [12] 27.6 µM | [13] > 100 µM | [14] > 100 µM | [16] > 100 µM | [17] 66.4 µM | [18] 37.9 µM | [19] > 100 µM | [20] 66.4 µM | [22] 20 µM | [53] > 100 µM | [23] > 100 µM | [24] 23 µM | [25] > 100 µM | [26] > 100 µM | [27] 61.7 µM | [28] > 100 µM | [29] 2.05 µM | [30] 37.2 µM | [31] 39.1 µM | [32] > 100 µM | [33] 79.3 µM | [34] 18.7 µM | [35] 77.6 µM | [36] > 100 µM | [37] > 100 µM | [39] > 100 µM | [40] > 100 µM | [54] 74.1 µM | [55] > 100 µM | [41] 35.9 µM | [42] > 100 µM | [43] 55.7 µM | [44] > 100 µM | [56] 18.3 µM | [45] > 100 µM | [46] > 100 µM | [47] > 100 µM | [48] > 100 µM | [57] 77.4 µM | [49] 88.7 µM | [50] 24.6 µM
> 100 µM: [11]

— ChEMBL document CHEMBL1201862, “PubChem BioAssay data set” (2004)
